Measurements: patent publication US8604046B2, “Substituted piperidine spiro pyrrolidinone and piperidinone, preparation and therapeutic use thereof” (Sanofi, priority 2008, dated 2013)
pKi: −log10 of the molar value.

Legend:
[1] = biological target: T1, rhesus H3 receptor (Macaca mulatta, UniProt Q865E1); test: Rhesus H3 [3H]-methylhistamine radioligand binding assay; design: species or system rhesus monkey (Macacca Mulatta); details: [3H]-Methylhistamine 2 nM, rhesus H3 membranes, WGA SPA beads, Cheng-Prusoff
Method: (§1) Rhesus H3 membranes were prepared from the Flp-In T-REx 293 Cell Line (Invitrogen) stably transfected with pcDNA5/FRT/TO (Invitrogen) containing the rhesus monkey (Macacca Mulatta) 445 amino acid H3 receptor. (Genbank #AY231164). Stably transfected cultures were amplified in tissue culture flasks by standard tissue culture methods and induced to express rhesus H3 by exposure to 500 ng/ml tetracycline (Cellgro) for 24 hours. After induction, cells were dissociated from flasks utilizing Cell Stripper (Cellgro). Cells were centrifuged (1K×g, 5 min) and pellet frozen in an ethanol-dry ice bath to disrupt cell membranes. Frozen cell pellet was re-suspended in 5 mM HEPES (pH 7.4, Invitrogen) at 10 ml/1000 cm2 of harvested cells. The cell suspension was drawn through an 18 gauge needle (2-3×) followed by a 23 gauge needle (2-3×) to further disrupt cell membranes. The cell suspension was centrifuged (40K×g, 30 min). Cell membrane pellet was re-suspended in 5 mM HEPES (pH 7.4, Invitrogen) at a final protein concentration of 10 mg/ml. Rhesus H3 membranes were stored under liquid nitrogen prior to use in [3H]-Methylhistamine and GTP S radioligand binding assays.
Rhesus H3 radioligand binding assay was performed using rhesus H3 receptor membranes (prepared as described above), [3H]-Methylhistamine (Perkin Elmer) and WGA SPA beads (wheat germ agglutinin scintillation proximity assay) beads (Amersham). The assay was performed in 96-well Opti-Plates (Packard). Each reaction contained 50 μl rhesus H3 membranes (20-30 μg total protein), 50 μl WGA SPA beads (0.1 μg) and 50 μl of 83 Ci/mmol [^3H]-Methylhistamine (final concentration 2 nM) and 50 μl of tested compound. The compounds of this invention and/or vehicle were diluted with binding buffer from 10 mM DMSO stocks. Assay plates were sealed with TopSeal (Perkin Elmer) and mixed on shaker (25° C., 1 hour). Assay plates were read on TopCount scintillation counter (Packard). Results were analyzed by Hill transformation and Ki values were determined by Cheng-Prusoff equation.

[2] = biological target: T1, rhesus H3 receptor; test: GTPγS radioligand binding assay, inhibition of rhesus H3 constitutive functional activity (inverse agonism); assay type: biochemical, rhesus monkey (Macacca Mulatta); design: concentration or dose not given beside the values; details: rhesus H3 cell membranes, relative to basal levels
Method: as §1

T1 sequence (Q865E1 1-445): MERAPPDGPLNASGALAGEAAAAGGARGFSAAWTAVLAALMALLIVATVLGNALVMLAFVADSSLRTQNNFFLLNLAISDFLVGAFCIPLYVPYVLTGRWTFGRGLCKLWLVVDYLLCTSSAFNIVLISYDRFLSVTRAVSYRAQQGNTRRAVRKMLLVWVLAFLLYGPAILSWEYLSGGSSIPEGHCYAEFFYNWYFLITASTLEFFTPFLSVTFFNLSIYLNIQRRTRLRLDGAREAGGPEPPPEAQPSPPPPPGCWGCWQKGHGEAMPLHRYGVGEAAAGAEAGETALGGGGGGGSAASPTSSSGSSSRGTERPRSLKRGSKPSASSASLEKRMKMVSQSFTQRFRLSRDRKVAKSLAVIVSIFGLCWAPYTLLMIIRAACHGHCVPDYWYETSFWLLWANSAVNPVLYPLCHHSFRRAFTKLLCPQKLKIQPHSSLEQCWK

Compound	pKi [1]	Inverse Agonism: % inhibition of Basal GTPγS binding in Rhesus H3 [2] [%]
C[C@H]1CCCCN1[C@H]1CCN(c2ccc(N3CCC4(CCN(C(=O)OC(C)(C)C)CC4)C3=O)cc2)C1 [Example 41, 2-{4-[3-((2S,3′S)-2-Methyl-piperidin-1-yl)-pyrrolidin-1-yl]-phenyl}-1-oxo-2,8-diaza-spiro[4.5]decane-8-carboxylic acid tert-butyl ester]	8.25	−14
C[C@H]1CCCCN1[C@H]1CCN(c2ccc(N3CCC4(CCNCC4)C3=O)c(C(F)(F)F)c2)C1.Cl [Example 48, 2-{4-[3-((2S,3′S)-2-Methyl-piperidin-1-yl)-pyrrolidin-1-yl]-2-trifluoromethyl-phenyl}-2,8-diaza-spiro[4.5]decan-1-one Hydrochloride]	9.22	−24
Cc1cc(N2CC[C@@H](N3CCC[C@H]3C)C2)ccc1N1CCC2(CCN(C(=O)c3ccc(OC(F)(F)F)cc3)CC2)C1=O [Example 16, 2-[2-Methyl-4-((2R,3′R)-2-methyl-[1,3′]bipyrrolidinyl-1′-yl)-phenyl]-8-(4-trifluoromethoxy-benzoyl)-2,8-diaza-spiro[4.5]decan-1-one]	7.00	−13
Cc1cc(N2CC[C@H](N3CCC[C@H]3C)C2)ccc1N1CCC2(CCN(C(=O)c3ccc(OC(F)(F)F)cc3)CC2)C1=O [Example 15, 2-[2-Methyl-4-((2R,3′S)-2-methyl-[1,3′]bipyrrolidinyl-1′-yl)-phenyl]-8-(4-trifluoromethoxy-benzoyl)-2,8-diaza-spiro[4.5]decan-1-one]	6.93	−14
Cc1cc(N2CC[C@H](N3CCC[C@H]3C)C2)ccc1N1CCC2(CCNCC2)C1=O.Cl [Example 8, 2-[2-Methyl-4-((2R,3′S)-2-methyl-[1,3′]bipyrrolidinyl-1′-yl)-phenyl]-2,8-diaza-spiro[4.5]decan-1-one Hydrochloride]	9.10	−26
Cc1cc(N2CC[C@@H](N3CCC[C@@H]3C)C2)ccc1N1CCC2(CCN(CC3CCCC3)CC2)C1=O [Example 12, 8-Cyclopentylmethyl-2-[2-methyl-4-((2S,3′R)-2-methyl-[1,3′]bipyrrolidinyl-1′-l)-phenyl]-2,8-diaza-spiro[4.5]decan-1-one]	9.10	−20
C[C@H]1CCCN1[C@H]1CCN(c2ccc(N3CCC4(CCN(Cc5ccco5)CC4)C3=O)c(C(F)(F)F)c2)C1 [Example 66, 8-Furan-2-ylmethyl-2-[4-((2S,3′S)-2-methyl-[1,3′]bipyrrolidinyl-1′-yl)-2-trifluoromethyl-phenyl]-2,8-diaza-spiro[4.5]decan-1-one]	8.26	−19
C[C@H]1CCCN1C1CCN(c2ccc(N3CCC4(CCN(C(=O)OC(C)(C)C)CC4)C3=O)cc2)CC1 [Example 38, 2-{4-[4-(2S-2-Methyl-pyrrolidin-1-yl)-piperidin-1-yl]-phenyl}-1-oxo-2,8-diaza-spiro[4,5]decane-8-carboxylic acid tert-butyl ester]	11.10	−25
Cc1cc(N2CC[C@@H](N3CCC[C@@H]3C)C2)ccc1N1CCC2(CCN(C(=O)OC(C)(C)C)CC2)C1=O [Example 3, 2-[2-Methyl-4-((2S,3′R)-2-methyl-[1,3′]bipyrrolidinyl-1′-yl)-phenyl]-1-oxo-2,8-diaza-spiro[4.5]decane-8-carboxylic acid tert-butyl ester]	8.15	−23
C[C@H]1CCCCN1[C@H]1CCN(c2ccc(N3CCC4(CCN(CC5CCOCC5)CC4)C3=O)c(F)c2)C1 [Example 59, 2-{2-Fluoro-4-[3-((2S,3′S)-2-methyl-piperidin-1-yl)-pyrrolidin-1-yl]-phenyl}-8-(tetrahydro-pyran-4-ylmethyl)-2,8-diaza-spiro[4.5]decan-1-one]	8.34	−19
C[C@H]1CCCN1[C@H]1CCN(c2ccc(N3CCC4(CCN(C(=O)c5ccc6ccccc6c5)CC4)C3=O)c(C(F)(F)F)c2)C1 [Example 62, 2-[4-((2S,3′S)-2-Methyl-[1,3′]bipyrrolidinyl-1′-yl)-2-trifluoromethyl-phenyl]-8-(naphthalene-2-carbonyl)-2,8-diaza-spiro[4.5]decan-1-one]	8.09	−19
C[C@H]1CCCN1C1CCN(c2ccc(N3CCC4(CCNCC4)C3=O)cc2)CC1.Cl [Example 44, 2-{4-[4-(2S-2-Methyl-pyrrolidin-1-yl)-piperidin-1-yl]-phenyl}-2,8-diaza-spiro[4.5]decan-1-one Hydrochloride]	10.00	−19
C[C@H]1CCCN1[C@H]1CCN(c2ccc(N3CCCC4(CCN(Cc5ccccc5)CC4)C3=O)c(F)c2)C1 [Example 36, 9-Benzyl-2-[2-fluoro-4-((2S,3′S)-2-methyl-[1,3′]bipyrrolidinyl-1′-yl)-phenyl]-2,9-diaza-spiro[5.5]undecan-1-one]	10.22	−13
COCC(=O)N1CCC2(CC1)CCN(c1ccc(N3CC[C@H](N4CCC[C@@H]4C)C3)cc1C(F)(F)F)C2=O [Example 61, 8-(2-Methoxy-acetyl)-2-[4-((2S,3′S)-2-methyl-[1,3′]bipyrrolidinyl-1′-yl)-2-trifluoromethyl-phenyl]-2,8-diaza-spiro[4.5]decan-1-one]	6.71	−7
C[C@H]1CCCCN1[C@H]1CCN(c2ccc(N3CCC4(CCN(C(=O)OC(C)(C)C)CC4)C3=O)c(C(F)(F)F)c2)C1 [Example 42, 2-{4-[3-((2S,3′S)-2-Methyl-piperidin-1-yl)-pyrrolidin-1-yl]-2-trifluoromethyl-phenyl}-1-oxo-2,8-diaza-spiro[4.5]decane-8-carboxylic acid tert-butyl ester]	7.19	−15
C[C@H]1CCCCN1[C@H]1CCN(c2ccc(N3CCC4(CCN(C(=O)C5CCOCC5)CC4)C3=O)cc2)C1 [Example 54, 2-{4-[3-((2S,3′S)-2-Methyl-piperidin-1-yl)-pyrrolidin-1-yl]-phenyl}-8-(tetrahydro-pyran-4-carbonyl)-2,8-diaza-spiro[4.5]decan-1-one]	8.48	−24
Cc1cc(N2CC[C@H](N3CCC[C@H]3C)C2)ccc1N1CCC2(CCN(CC3CCCC3)CC2)C1=O [Example 10, 8-Cyclopentyl methyl-2-[2-methyl-4-((2R,3′S)-2-methyl-[1,3′]bipyrrolidinyl-1′-l)-phenyl]-2,8-diaza-spiro[4.5]decan-1-one]	7.92	−26
C[C@H]1CCCCN1[C@H]1CCN(c2ccc(N3CCC4(CCN(C(=O)C5CCCC5)CC4)C3=O)c(C(F)(F)F)c2)C1 [Example 55, 8-Cyclopentanecarbonyl-2-{4-[3-((2S,3′S)-2-methyl-piperidin-1-yl)-pyrrolidin-1-yl]-2-trifluoromethyl-phenyl}-2,8-diaza-spiro[4.5]decan-1-one]	8.68	−27
C[C@H]1CCCN1[C@H]1CCN(c2ccc(N3CCCC4(CCN(C(=O)OC(C)(C)C)CC4)C3=O)cc2)C1 [Example 21, 2-[4-((2S,3′S)-2-Methyl-[1,3′]bipyrrolidinyl-1′-yl)-phenyl]-1-oxo-2,9-diaza-spiro[5.5]undecane-9-carboxylic acid tert-butyl ester]	8.14	−28
C[C@H]1CCCN1C1CCN(c2ccc(N3CCC4(CCN(S(=O)(=O)c5ccccc5)CC4)C3=O)cc2)CC1 [Example 50, 8-Benzenesulfonyl-2-{4-[4-(2S-2-methyl-pyrrolidin-1-yl)-piperidin-1-yl]-phenyl}-2,8-diaza-spiro[4.5]decan-1-one]	9.62	−23
C[C@H]1CCCN1C1CCN(c2ccc(N3CCC4(CCN(C(=O)C5CCCCC5)CC4)C3=O)c(F)c2)CC1 [Example 52, 8-Cyclohexanecarbonyl-2-{2-fluoro-4-[4-(2S-2-methyl-pyrrolidin-1-yl)-piperidin-1-yl]-phenyl}-2,8-diaza-spiro[4.5]decan-1-one]	9.70	−24
C[C@H]1CCCN1C1CCN(c2ccc(N3CCC4(CCNCC4)C3=O)c(F)c2)CC1.Cl [Example 46, 2-{4-[4-(2S-2-Methyl-pyrrolidin-1-yl)-piperidin-1-yl]-2-fluoro-phenyl}-2,8-diaza-spiro[4.5]decan-1-one Hydrochloride]	10.00	−24
